Among the data in patent US12209102B2, “Heterocyclic compounds and uses thereof” (Kumquat Biosciences Inc., priority 2022, dated 2025) are IC50 values, retold here.

One assay has as its target T1, K-Ras G12S (Homo sapiens, UniProt P01116, G12S).
T1 construct: made in house; host or cells: E. coli BL21 (DE3)
The assay can be described thus: HTRF resonance energy transfer assay, K-Ras G12S / SOS1 interaction. In kind it is biochemical. Conditions: HTRF assay of Example 5; read-out: IC50 against K-Ras G12S. An outline of the steps:
(§1)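 GST-tagged K-Ras (WT or mutant) bound to anti-GST-Eu donor was mixed with His-hSOS1 bound to anti-6His-XL665 acceptor in ~5 mM HEPES pH 7.4, 150 mM NaCl, 1 mM DTT, 0.05% BSA, 0.0025% Igepal. HTRF (ex 337, em 620/665 nm) was read after ~10 min or longer. IC50 came from the 665/620 ratio over duplicates from 10 μM to 0.01 μM.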
For orientation: In TR-FRET formats the signal depends on donor and acceptor labels being close together.

For another assay, the target named is T2, K-Ras WT (Homo sapiens, UniProt P01116).
T2 construct: made in house; host or cells: E. coli BL21 (DE3)
T2 sequence (P01116 1-188 isoform P01116-2): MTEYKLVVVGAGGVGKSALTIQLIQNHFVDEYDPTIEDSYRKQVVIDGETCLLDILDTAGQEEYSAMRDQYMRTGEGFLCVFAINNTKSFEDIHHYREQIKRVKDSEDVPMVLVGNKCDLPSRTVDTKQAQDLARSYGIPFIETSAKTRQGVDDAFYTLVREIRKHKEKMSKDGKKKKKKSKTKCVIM
Put plainly: HTRF resonance energy transfer assay, K-Ras WT / SOS1 interaction. Type of assay: biochemical. The note with it: HTRF assay of Example 5; read-out: IC50 against K-Ras WT. Summed up:
as §1

Another assay has as its target T3, K-Ras G12D (Homo sapiens, UniProt P01116, G12D).
T3 construct: made in house; host or cells: E. coli BL21 (DE3)
Put plainly: HTRF resonance energy transfer assay, K-Ras G12D / SOS1 interaction. Type of assay: biochemical. The note with it: HTRF assay of Example 5; read-out: IC50 against K-Ras G12D. An outline of the steps:
as §1

The target of a further assay is T4, K-Ras G12V (Homo sapiens, UniProt P01116, G12V).
T4 construct: made in house; host or cells: E. coli BL21 (DE3)
T4 sequence (P01116 1-188 isoform P01116-2 G12V): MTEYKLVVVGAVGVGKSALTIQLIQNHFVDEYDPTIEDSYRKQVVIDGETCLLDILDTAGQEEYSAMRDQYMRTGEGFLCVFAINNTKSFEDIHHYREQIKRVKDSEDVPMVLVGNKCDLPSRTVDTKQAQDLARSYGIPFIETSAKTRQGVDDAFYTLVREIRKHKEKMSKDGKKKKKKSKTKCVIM
The assay can be described thus: HTRF resonance energy transfer assay, K-Ras G12V / SOS1 interaction. In kind it is biochemical. Conditions: HTRF assay of Example 5; read-out: IC50 against K-Ras G12V. Summed up:
as §1

For the next assay, the system named is SW620 cells. The assay can be described thus: Ras cellular assay, growth of cells with K-Ras G12V mutation (CellTiter-Glo). The note with it: Homo sapiens, SW-620; cell growth, Example 9, G12V mutation; read-out: IC50 against SW620 cells. Type of assay: cell-based. Summed up:
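SW620 (K-Ras G12V) cells, e.g. 800/well in RPMI-1640 with 10% heat-inactivated FBS on standard or ultra-low attachment plates, were dosed the day after plating with e.g. a 10-point 3-fold series. Viability by CellTiter-Glo luminescence about 6 days later; IC50 from four-parameter fit.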
In general terms: In ATP-based viability assays light output follows the ATP content of the culture.

Another assay deals with A549 cells. The assay can be described thus: Ras cellular assay, growth of cells with K-Ras G12S mutation (CellTiter-Glo). In kind it is cell-based. Conditions: Homo sapiens, cell growth, Example 9, G12S mutation, read-out: IC50 against A549 cells. An outline of the steps: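 A549 cells (K-Ras G12S) in RPMI-1640 with 10% heat-inactivated FBS, seeded e.g. 800 per well in standard or ultra-low-attachment 384-well plates, treated next day with a dilution series (e.g. 10-point, 3-fold). Viability by CellTiter-Glo luminescence about 6 days later; IC50 from four-parameter fit.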

T1 sequence (P01116 1-188 isoform P01116-2 G12S): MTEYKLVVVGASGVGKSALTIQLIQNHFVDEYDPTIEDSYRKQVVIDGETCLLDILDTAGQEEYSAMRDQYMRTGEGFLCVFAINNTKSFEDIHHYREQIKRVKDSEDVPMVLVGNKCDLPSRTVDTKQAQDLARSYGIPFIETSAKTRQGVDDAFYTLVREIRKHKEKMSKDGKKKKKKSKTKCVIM
T3 sequence (P01116 1-188 isoform P01116-2 G12D): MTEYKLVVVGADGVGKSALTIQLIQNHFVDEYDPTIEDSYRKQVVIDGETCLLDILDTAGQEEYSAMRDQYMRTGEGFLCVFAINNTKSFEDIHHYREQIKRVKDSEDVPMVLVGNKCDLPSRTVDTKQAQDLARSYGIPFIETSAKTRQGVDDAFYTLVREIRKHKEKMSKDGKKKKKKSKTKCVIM

On to `CN(CCN1CCOc2c(Cl)c(-c3ccc(F)c4sc(N)c(C#N)c34)c(F)c3nc(OC[C@@]45CCCN4C[C@H](F)C5)nc1c23)C(=O)C1COC1` [Compound 1058, N-(2-(9-(2-amino-3-cyano-7-fluorobenzo[b]thiophen-4-yl)-8-chloro-10-fluoro-2-(((2R,7aS)-2-fluorotetrahydro-1H-pyrrolizin-7a(5H)-yl)methoxy)-5,6-dihydro-4H-[1,4]oxazepino[5,6,7-de]quinazolin-4-yl)ethyl)-N-methyloxetane-3-carboxamide], for which the 50% inhibitory concentration (IC50) – broadly, the point on the concentration scale where inhibition reaches its midpoint – at K-Ras G12S was under 100 nM; at K-Ras WT it was under 100 nM; at K-Ras G12D, under 100 nM; on K-Ras G12V it was under 100 nM; in the assay with SW620 cells it was under 5000 nM; in the assay with A549 cells, under 5000 nM.

With `N#Cc1c(N)sc2c(F)ccc(-c3c(Cl)c4c5c(nc(OC[C@@]67CCCN6C[C@H](F)C7)nc5c3F)N(CC3CCOCC3)CCO4)c12` [Compound 1067, 2-amino-4-(8-chloro-10-fluoro-2-(((2R,7aS)-2-fluorotetrahydro-1H-pyrrolizin-7a(5H)-yl)methoxy)-4-((tetrahydro-2H-pyran-4-yl)methyl)-5,6-dihydro-4H-[1,4]oxazepino[5,6,7-de]quinazolin-9-yl)-7-fluorobenzo[b]thiophene-3-carbonitrile], the concentration for half-maximal inhibition (IC50) at K-Ras G12S is under 100 nM; on K-Ras WT it was under 100 nM; at K-Ras G12D it was under 100 nM; on K-Ras G12V it was under 100 nM; in the assay with SW620 cells, under 5000 nM; in the assay on A549 cells, under 5000 nM.

As for `CC1(C)CC(N2CCOc3c(Cl)c(-c4ccc(F)c5sc(N)c(C#N)c45)c(F)c4nc(OC[C@@]56CCCN5C[C@H](F)C6)nc2c34)CO1` (stereo partly drawn) [Compound 1071, 2-amino-4-(8-chloro-4-(5,5-dimethyltetrahydrofuran-3-yl)-10-fluoro-2-(((2R,7aS)-2-fluorotetrahydro-1H-pyrrolizin-7a(5H)-yl)methoxy)-5,6-dihydro-4H-[1,4]oxazepino[5,6,7-de]quinazolin-9-yl)-7-fluorobenzo[b]thiophene-3-carbonitrile], the IC50 at K-Ras G12S was under 100 nM; at K-Ras WT, under 100 nM; on K-Ras G12D, under 100 nM; on K-Ras G12V, under 100 nM; in the assay with SW620 cells, under 5000 nM; in the assay with A549 cells, under 5000 nM.

As for `N#Cc1c(N)sc2c(F)ccc(-c3c(Cl)c4c5c(nc(OC[C@@]67CCCN6C[C@H](F)C7)nc5c3F)N(C3CC(NC(=O)[C@@H]5N[C@H]5C5CC5)C3)CCO4)c12` (stereo partly drawn) [Compound 1082, (2R,3S)-N-(3-(9-(2-amino-3-cyano-7-fluorobenzo[b]thiophen-4-yl)-8-chloro-10-fluoro-2-(((2R,7aS)-2-fluorotetrahydro-1H-pyrrolizin-7a(5H)-yl)methoxy)-5,6-dihydro-4H-[1,4]oxazepino[5,6,7-de]quinazolin-4-yl)cyclobutyl)-3-cyclopropylaziridine-2-carboxamide], the half-inhibitory concentration (IC50) is under 100 nM at K-Ras G12S; under 100 nM at K-Ras WT; under 100 nM on K-Ras G12D; under 100 nM on K-Ras G12V; under 5000 nM in the assay on SW620 cells; under 5000 nM with A549 cells.

For `CNC(=O)C1CC(N2CCOc3c(Cl)c(-c4ccc(F)c5sc(N)c(C#N)c45)c(F)c4nc(OC[C@@]56CCCN5C[C@H](F)C6)nc2c34)CCO1` (stereo partly drawn) [Compound 1094, 4-(9-(2-amino-3-cyano-7-fluorobenzo[b]thiophen-4-yl)-8-chloro-10-fluoro-2-(((2R,7aS)-2-fluorotetrahydro-1H-pyrrolizin-7a(5H)-yl)methoxy)-5,6-dihydro-4H-[1,4]oxazepino[5,6,7-de]quinazolin-4-yl)-N-methyltetrahydro-2H-pyran-2-carboxamide], the IC50 at K-Ras G12S was under 100 nM; at K-Ras WT, under 100 nM; on K-Ras G12D, under 100 nM; at K-Ras G12V it was under 100 nM; in the assay with SW620 cells, under 5000 nM; in the assay with A549 cells, under 5000 nM.

Take `N#Cc1c(N)sc2c(F)ccc(-c3c(Cl)c4c5c(nc(OC[C@@]67CCCN6C[C@H](F)C7)nc5c3F)N(C3CCCCC3)CCO4)c12` [Compound 1116, 2-amino-4-(8-chloro-4-cyclohexyl-10-fluoro-2-(((2R,7aS)-2-fluorotetrahydro-1H-pyrrolizin-7a(5H)-yl)methoxy)-5,6-dihydro-4H-[1,4]oxazepino[5,6,7-de]quinazolin-9-yl)-7-fluorobenzo[b]thiophene-3-carbonitrile]: the concentration for half-maximal inhibition (IC50) at K-Ras G12S is under 100 nM; at K-Ras WT it was under 100 nM; on K-Ras G12D it was under 100 nM; at K-Ras G12V it was under 100 nM; in the assay on SW620 cells, under 5000 nM; with A549 cells it was under 5000 nM.

Consider `CNC(=O)C1CCC(N2CCOc3c(Cl)c(-c4ccc(F)c5sc(N)c(C#N)c45)c(F)c4nc(OC[C@@]56CCCN5C[C@H](F)C6)nc2c34)CC1` (stereo partly drawn) [Compound 1120, 4-(9-(2-amino-3-cyano-7-fluorobenzo[b]thiophen-4-yl)-8-chloro-10-fluoro-2-(((2R,7aS)-2-fluorotetrahydro-1H-pyrrolizin-7a(5H)-yl)methoxy)-5,6-dihydro-4H-[1,4]oxazepino[5,6,7-de]quinazolin-4-yl)-N-methylcyclohexane-1-carboxamide], for which the IC50 is under 100 nM at K-Ras G12S; under 100 nM on K-Ras WT; under 100 nM at K-Ras G12D; under 100 nM at K-Ras G12V; under 5000 nM in the assay on SW620 cells; under 5000 nM in the assay with A549 cells.

As to `N#Cc1c(N)sc2c(F)ccc(-c3c(Cl)c4c5c(nc(OC[C@@]67CCCN6C[C@H](F)C7)nc5c3F)N(CC(F)F)CC(C3CC3)O4)c12` (stereo partly drawn) [Compound 1128, 2-amino-4-(8-chloro-6-cyclopropyl-4-(2,2-difluoroethyl)-10-fluoro-2-(((2R,7aS)-2-fluorotetrahydro-1H-pyrrolizin-7a(5H)-yl)methoxy)-5,6-dihydro-4H-[1,4]oxazepino[5,6,7-de]quinazolin-9-yl)-7-fluorobenzo[b]thiophene-3-carbonitrile], the half-maximal inhibitory concentration (IC50) at K-Ras G12S is under 100 nM; at K-Ras WT, under 100 nM; at K-Ras G12D it was under 100 nM; on K-Ras G12V it was under 100 nM; in the assay on SW620 cells, under 5000 nM; in the assay with A549 cells it was under 5000 nM.

With `COCCN1CCCOc2c(Cl)c(-c3ccc(F)c4sc(N)c(C#N)c34)c(F)c3nc(OC[C@@]45CCCN4C[C@H](F)C5)nc1c23` [Compound 1201, 2-amino-4-(9-chloro-11-fluoro-2-(((2R,7aS)-2-fluorotetrahydro-1H-pyrrolizin-7a(5H)-yl)methoxy)-4-(2-methoxyethyl)-4,5,6,7-tetrahydro-[1,5]oxazocino[4,3,2-de]quinazolin-10-yl)-7-fluorobenzo[b]thiophene-3-carbonitrile], the half-inhibitory concentration (IC50) at K-Ras G12S was under 100 nM; on K-Ras WT it was under 100 nM; at K-Ras G12D, under 100 nM; on K-Ras G12V it was under 100 nM; with SW620 cells it was under 5000 nM; in the assay with A549 cells, under 5000 nM.

With `N#Cc1c(N)sc2c(F)ccc(-c3c(Cl)c4c5c(nc(OC[C@@]67CCCN6C[C@H](F)C7)nc5c3F)N(C3CCOC3)CCCO4)c12` (stereo partly drawn) [Compound 1205, 2-amino-4-(9-chloro-11-fluoro-2-(((2R,7aS)-2-fluorotetrahydro-1H-pyrrolizin-7a(5H)-yl)methoxy)-4-(tetrahydrofuran-3-yl)-4,5,6,7-tetrahydro-[1,5]oxazocino[4,3,2-de]quinazolin-10-yl)-7-fluorobenzo[b]thiophene-3-carbonitrile], the IC50 on K-Ras G12S is under 100 nM; on K-Ras WT, under 100 nM; at K-Ras G12D, under 100 nM; on K-Ras G12V it was under 100 nM; with SW620 cells, under 5000 nM; in the assay on A549 cells, under 5000 nM.
